# Laboratory results from BindingDB's records for doi:10.1021/jm970389+ (Abbott Laboratories, 1998).
# How the values were obtained:
# [1] = The compound was evaluated for its binding affinity against PAF receptor in rabbit platelet
# [2] = Binding potency against Platelet activating factor (PAF) receptor using [3H]C18-PAF as radioligand on rabbit platelet membranes
SMILES,Ki [1] [nM],Ki [2] [nM]
"CC(=O)OC[n+]1cccc([C@H]2SCc3c(C(=O)c4cn(C(=O)N(C)C)c5cc(-c6ccc(F)cc6)ccc45)ccn32)c1 [1-Acetoxymethyl-3-{(R)-7-[1-dimethylcarbamoyl-6-(4-fluoro-phenyl)-1H-indole-3-carbonyl]-1H-pyrrolo[1,2-c]thiazol-3-yl}-pyridinium; chloride]",3.8,
"Cc1nc2cnccc2n1Cc1ccc(C(=O)c2cn(C(=O)N(C)C)c3cccc(OC(=O)N(C)C)c23)cc1 [Dimethyl-carbamic acid 1-dimethylcarbamoyl-3-[4-(2-methyl-imidazo[4,5-c]pyridin-1-ylmethyl)-benzoyl]-1H-indol-4-yl ester]",,3.6
"Cc1[nH]c2ccccc2c1C(=O)c1ccc(Cn2c(C)nc3cnccc32)cc1 [[4-(2-Methyl-imidazo[4,5-c]pyridin-1-ylmethyl)-phenyl]-(2-methyl-1H-indol-3-yl)-methanone]",,48
"Cc1nc2cnccc2n1Cc1ccc(C(=O)c2c[nH]c3cc(-c4ccc(F)cc4)ccc23)cc1 [[6-(4-Fluoro-phenyl)-1H-indol-3-yl]-[4-(2-methyl-imidazo[4,5-c]pyridin-1-ylmethyl)-phenyl]-methanone]",,75
